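Exposure lasted 48 hours, with cells grown in 96-well plates and compounds tested at five concentrations. GI50 is the concentration that inhibits growth by half. TGI marks complete inhibition of growth.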
Assays:
Assay in all cases: DTP human tumour cell line panel, 48 h
COLO 205 colon = tested on: COLO 205 colon
SR leukemia = tested on: SR leukemia
NCI-H23 lung = tested on: NCI-H23 lung
SK-MEL-5 melanoma = tested on: SK-MEL-5 melanoma
NCI-H460 lung = tested on: NCI-H460 lung
SF-295 CNS = tested on: SF-295 CNS
IGROV1 ovarian = tested on: IGROV1 ovarian
UACC-257 melanoma = tested on: UACC-257 melanoma
HCT-15 colon = tested on: HCT-15 colon
UO-31 renal = tested on: UO-31 renal

| SMILES | TGI (COLO 205 colon) [µM] | TGI (SR leukemia) [µM] | TGI (NCI-H23 lung) [µM] | TGI (SK-MEL-5 melanoma) [µM] | TGI (NCI-H460 lung) [µM] | TGI (SF-295 CNS) [µM] | TGI (IGROV1 ovarian) [µM] | TGI (UACC-257 melanoma) [µM] | TGI (HCT-15 colon) [µM] | TGI (UO-31 renal) [µM] | GI50 (COLO 205 colon) [µM] | GI50 (SR leukemia) [µM] | GI50 (NCI-H23 lung) [µM] | GI50 (SK-MEL-5 melanoma) [µM] | GI50 (NCI-H460 lung) [µM] | GI50 (SF-295 CNS) [µM] | GI50 (IGROV1 ovarian) [µM] | GI50 (UACC-257 melanoma) [µM] | GI50 (HCT-15 colon) [µM] | GI50 (UO-31 renal) [µM] |
| --- | --- | --- | --- | --- | --- | --- | --- | --- | --- | --- | --- | --- | --- | --- | --- | --- | --- | --- | --- | --- |
| C#CCC(N)(CO)C(=O)O (stereo not given) | > 100 | > 100 | > 100 | > 100 | > 100 | > 100 | > 100 | > 100 | > 100 | > 100 |  |  |  |  |  |  |  |  |  |  |
| CCSc1nc(N)c2cn[nH]c2n1 | 53.9 | 39.6 | 58.9 | 43.6 | > 100 | 85.3 | > 100 | > 100 | > 100 | > 100 | 23.5 | 7.63 | 20.7 | 18.5 | 35.1 | 32.1 | 35.9 | 71.1 | 41.7 | 49 |
| COc1ccccc1/C=C/C(=O)/C=C/c1ccccc1O | 2.49 | > 100 | 4.1 | 2.78 | 4.39 | 5.23 | 1.92 | 3.63 | 1.64 | 1.61 | 1.11 | 0.39 | 1.5 | 1.46 | 1.67 | 1.99 | 0.344 | 1.71 | 0.351 | 0.359 |
| COc1ccc(-c2nnc(N3CCN(C(=O)CN4CCN(c5ccc(OC)cc5)CC4)CC3)nc2-c2ccc(OC)cc2)cc1 | 29.7 | 4.04 | 33.4 | 6.83 | > 62.3 | > 72.1 | > 78.6 | 39.5 | 34.6 | 39.7 | 6.36 | 2.1 | 9.73 | 2.4 | 15.4 | 20.3 | 6.7 | 17.5 | 6.96 | 12.5 |
| CC/C(=N\NS(=O)(=O)c1ccccc1)c1ccccc1 | > 100 | > 100 | > 100 | > 100 | > 100 | > 100 | > 100 | > 100 | > 100 | > 100 |  |  |  |  |  |  |  |  |  |  |
| NC(=O)/C=C/C(=O)O | > 5000 | > 5000 | > 5000 | > 5000 | > 5000 | > 5000 | > 5000 | > 5000 | > 5000 | > 5000 |  |  |  |  |  |  |  |  |  |  |
| C[C@H](Cn1ncnn1)Nc1ncc2cc(Oc3ccc(F)cc3F)c(=O)n(C)c2n1 | > 25 | > 25 | > 25 | > 25 | > 25 | > 25 | > 25 | > 25 | > 25 | > 25 | > 25 | > 25 | > 25 | > 25 | > 25 | > 25 | > 25 | > 25 | > 25 | > 25 |
| CCCCCCCCCCCC[n+]1ccccc1 (tested in a mixture with another compound) | 1.52 | 3.11 | 5.48 | 1.36 | 3.9 | 2.52 | 2.28 | 2.88 | 19.3 | 14.8 | 0.404 | 0.156 | 0.655 | 0.342 | 1.33 | 0.712 | 0.519 | 0.772 | 3.8 | 2.24 |
| Cc1ccccc1Nc1nc2c(s1)C(=O)c1ccccc1C2=O | 34.7 | 11.4 | 14.1 | 7.12 | 25.3 | 32.9 | 26.4 | 12.4 | 10.7 | 14.4 |  |  |  |  |  |  |  |  |  |  |
| O=C1C(SCCO)=C(SCCO)C(=O)c2ccccc21 | 3.27 | 3.74 | 2.44 | 0.653 | 3.49 | 2.97 | 2.78 | 2.59 | 3.58 | 2.57 |  |  |  |  |  |  |  |  |  |  |
| CC(=O)[CH-]C(C)=O.[CH2-]C.[CH2-]C.[Tl+3] | > 100 | > 100 | > 100 | > 100 | > 100 | > 100 | > 100 | > 100 | > 100 | > 100 | > 100 | > 100 | > 100 | > 100 | > 100 | > 100 | > 100 | > 100 | > 100 | > 100 |
| CNC(SC)=C1C(=O)OC(C)(C)OC1=O | > 100 | > 100 | > 100 | > 100 | > 100 | > 100 | > 100 | > 100 | 40.9 | > 100 |  |  |  |  |  |  |  |  |  |  |

— PubChem BioAssay (NCI)
